Results from patent publication US6372278B1, “Sweetener composition” (Ajinomoto Co., Inc., priority 1998, dated 2002).
Peptide text beside a SMILES is read from it.

Assays:
[1] = in terms of weight ratio; cited from earlier work
[2] = Dissolution time in water, elution tester (Japanese Pharmacopoeia paddle method); type: physicochemical
Protocol: (Dissolution rate of raw (original) powders each from NM C-type crystals and APM, and a mixture thereof) A predetermined amount of the sample was introduced into 900 ml water (20° C.) in a 1-L elution tester (the Japanese Pharmacopoeia, Paddle method, 100 rpm) and its dissolution time was measured (end point was visually confirmed).
Specifically, 1 g of sample taken from each mixture consisting of NM C-type crystal raw powder (average particle size of about 100 μm) and APM raw powder (average particle size of about 15 μm, IB-type bundled crystals) at the predetermined various ratios (APM content (% by weight)) shown in Table 1 below, was weighed, and then measured for its dissolution time. For comparison, 1.00 g, 0.90 g, 0.50 g, 0.10 g, 0.03 g, and 0.005 g samples were taken from said NM raw powder, and then their dissolution times were determined in the same manner as above. For the same purpose, 1.00 g, 0.97 g, 0.90 g, 0.50 g, and 0.10 g samples were taken from said APM raw powder, and then their dissolution times were determined in the same manner. […]

[3] = 0.10 g sample alone in 900 ml water, 20° C., paddle 100 rpm
[4] = 0.50 g sample alone in 900 ml water, 20° C., paddle 100 rpm
[5] = 0.90 g sample alone in 900 ml water, 20° C., paddle 100 rpm
[6] = 1.00 g sample alone in 900 ml water, 20° C., paddle 100 rpm, end point visual
[7] = 0.03 g sample alone in 900 ml water, 20° C., paddle 100 rpm
[8] = 0.51 g of NM alone (same sweetness as 1 g mixture containing 50% APM)

COC(=O)[C@H](Cc1ccccc1)NC(=O)[C@@H](N)CC(=O)O [APM, Aspartame] (H-Asp-Phe-OMe)
sweetness strength [1]: about 200 times that of sucrose | Dissolution time [2, 3]: 10 min | Dissolution time [2, 4]: 20 min | Dissolution time [2, 5]: 27 min | Dissolution time ([2]; 0.97 g sample alone in 900 ml water, 20° C., paddle 100 rpm): 29 min | Dissolution time [2, 6]: 30 min

COC(=O)[C@H](Cc1ccccc1)NC(=O)[C@H](CC(=O)O)NCCC(C)(C)C [NM A-type crystals, N-{N-(3,3-dimethylbutyl)-L-α-aspartyl}-L-phenylalanine 1-methyl ester]
Dissolution time [2, 7]: 10 min | Dissolution time [2, 3]: 16 min | Dissolution time [2, 4]: 35 min | Dissolution time [2, 8]: about 35 minutes | Dissolution time [2, 5]: 40 min | Dissolution time [2, 6]: 42 min

COC(=O)[C@H](Cc1ccccc1)NC(=O)[C@H](CC(=O)O)NCCC(C)(C)C [NM C-type crystals, N-{N-(3,3-dimethylbutyl)-L-α-aspartyl}-L-phenylalanine 1-methyl ester]
Dissolution time ([2]; 0.005 g sample alone in 900 ml water, 20° C., paddle 100 rpm): 4 min | Dissolution time [2, 7]: 30 min | Dissolution time [2, 3]: 40 min | Dissolution time ([2]; 0.5 g alone, 900 ml water, 20° C.): 55 min | Dissolution time [2, 4]: 55 min | Dissolution time [2, 8]: about 55 minutes | Dissolution time [2, 5]: 60 min | Dissolution time [2, 6]: 62 min

COC(=O)[C@H](Cc1ccccc1)NC(=O)[C@H](CC(=O)O)NCCC(C)(C)C [NM]
sweetness strength [1]: about 10,000 times that of sucrose
